Literature values, collected in patent US11241503B2, “Oxadiazole linkers and use thereof” (NewBio Therapeutics, Inc., priority 2017, dated 2022).

Test system: human carcinoma lines

For `COc1cccc2c1C(=O)c1c(O)c3c(c(O)c1C2=O)C[C@@](O)(C(=O)CO)C[C@@H]3O[C@H]1C[C@H](N)[C@H](O)[C@H](C)O1` [doxorubicin, Doxorubicin], the IC50 is listed as 100 to 200 nM.
